Source: paper PMC7067379, “Mapping the S1 and S1’ subsites of cysteine proteases with new dipeptidyl nitrile inhibitors as trypanocidal agents” (PLoS Neglected Tropical Diseases, 2020)
Like-named read-outs stand apart in the source and are kept apart here.

Columns and labels:
[1] = Mammalian cytotoxicity assay (MTT); type: cell-based; settings: rhesus monkey, LLCMK2 cells;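 also: Read-out is absorbance at 570 nm of formazan taken up in DMSO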
Protocol: (§2) LLCMK2 cells were cultured in 96-well plates at a concentration of 5 x 10^4 cells/ml. After 48 h, the plates were washed twice with PBS and 200 μL RPMI medium was added with serial dilutions of the compounds and benznidazole (1.95 μM to 250 μM) in triplicate. After 72 h at 37 °C, the cytotoxic activity of the compounds was determined by the classical MTT [3- (4,5-dimethylthiazol-2-yl) -2,5-diphenyltetrazolium bromide] method. Briefly, 50 μL MTT dissolved in PBS (2.0 mg mL^-1) was added to each well and the plates were incubated for 4 h at 37 °C. The formed formazan crystals were dissolved with DMSO (50 μL/well) and the absorbance of the samples was measured by spectrophotometer at 570 nm after 30 min.

[2] = tested on: LLCMK2 cells; assay: Mammalian cytotoxicity assay (MTT); type: cell-based; settings: LLCMK2, 72 h, MTT; Table 2;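 also: Read-out is absorbance at 570 nm of formazan taken up in DMSO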
Protocol: as §2

[3] = target: cathepsin S (CatS) (Homo sapiens, UniProt P25774); assay: Cathepsin S enzyme inhibition; type: biochemical; settings: for Ki: SD lower than 15%, read-out: pKi CatS (converted)
cathepsin S (CatS), sequence (P25774 115-331): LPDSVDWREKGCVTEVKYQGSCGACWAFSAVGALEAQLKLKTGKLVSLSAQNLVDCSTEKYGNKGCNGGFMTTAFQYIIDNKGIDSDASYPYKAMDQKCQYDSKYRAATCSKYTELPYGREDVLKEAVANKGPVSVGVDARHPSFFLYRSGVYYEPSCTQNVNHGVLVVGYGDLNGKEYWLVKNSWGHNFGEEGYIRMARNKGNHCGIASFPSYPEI
Protocol: (§1) Enzyme inhibition studies for Cz and LmCPB were performed as previously described for Cz. The experimental procedures are described in the Supporting Information (see chapter S3). Cathepsins B, L, S were assayed as reported.

[4] = target: T1, Human recombinant cathepsin K (Homo sapiens, UniProt P43235); assay: Cathepsin K assay; type: biochemical; settings: for remaining activity at 10 µM: read-out: remaining activity (%) at 10 μM, CatK; for Ki: SD lower than 15%, read-out: pKi CatK (converted)
T1 sequence (P43235 115-329): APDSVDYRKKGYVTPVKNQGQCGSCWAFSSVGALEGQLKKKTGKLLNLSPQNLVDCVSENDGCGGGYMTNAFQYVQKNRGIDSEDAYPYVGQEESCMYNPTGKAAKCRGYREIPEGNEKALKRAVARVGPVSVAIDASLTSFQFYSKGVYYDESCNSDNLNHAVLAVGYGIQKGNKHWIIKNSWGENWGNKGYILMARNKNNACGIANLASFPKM
Protocol: Human recombinant cathepsin K was assayed on a FLUOSTAR Optima plate reader at 25 °C with an excitation wavelength of 360 nm and an emission wavelength of 440 nm on a 96 well plate. The enzyme solution (23 μg/mL in 50 mM sodium acetate pH 5.5, 50 mM NaCl, 0.5 mM EDTA, 5 mM DTT) was diluted 1:100 with assay buffer (100 mM sodium citrate buffer pH 5.0, 100 mM NaCl, 1 mM EDTA, 0.01% CHAPS) containing 5 mM DTT and was then incubated at 37 °C for 30 min for activation. A 1.5 mM stock solution of the substrate Z-Leu-Arg-AMC was prepared in DMSO. […] The assay was performed with a final concentration of cathepsin K of 1.73 ng/mL. Stock solutions of inhibitors were prepared in DMSO. The final DMSO concentration was 2% (4 μL). Into a well containing 194.5 μL assay buffer, 0.8 μL of the fluorogenic substrate, DMSO and inhibitor solution (3.2 μL) were added. Upon addition of cathepsin K (1.5 μL), the measurement was started and followed for 20 min.

[5] = tested on: T. cruzi Tulahuen LacZ strain, intracellular amastigote forms; assay: In vitro trypanocidal activity on intracellular amastigote forms (Tulahuen strain); type: cell-based, Trypanosoma cruzi; settings: for EC50: Trypanosoma cruzi, TULAHUEN; for SI (selective index): from EC50 (T. cruzi) and CC50 (LLCMK2)
Protocol: Cells were evaluated in 96-well plates. Cells from the LLCMK2 lineage were plated at a concentration of 5x10^4 cells mL^-1. Trypomastigote forms of the Tulahuen LacZ strain were added at a concentration of 5×10^5 parasites mL^-1 and placed in the incubator at 37°C with 5% CO2 for 24 h. After the incubation period, the trypomastigote forms present were removed by successive washes with PBS, remaining only as intracellular amastigote forms. Compounds were added at different concentrations (1.95 μM to 250 μM serial dilutions) and incubated for 72 h. At the end of this period, the substrate CPRG (chlorophenol red β-D-galactopyranoside, 400 μM in 0.3% Triton X-100, pH 7.4) was added. […] Benznidazole was used as a positive control in the same concentrations as the substances, and DMSO as a negative control. Compounds were solubilized in DMSO. The selectivity index (SI) was calculated using the formula: […]. All statistical analyses were done with the program GraphPad Prism v.5.

[6] = target: cathepsin L (CatL) (Homo sapiens, UniProt P07711); assay: Cathepsin L enzyme inhibition; type: biochemical; settings: for remaining activity at 10 µM: replicates = 2, n.i. = no inhibition observed at 10 μM; for Ki: SD lower than 15%, read-out: pKi CatL (converted)
cathepsin L (CatL), sequence (P07711 114-333): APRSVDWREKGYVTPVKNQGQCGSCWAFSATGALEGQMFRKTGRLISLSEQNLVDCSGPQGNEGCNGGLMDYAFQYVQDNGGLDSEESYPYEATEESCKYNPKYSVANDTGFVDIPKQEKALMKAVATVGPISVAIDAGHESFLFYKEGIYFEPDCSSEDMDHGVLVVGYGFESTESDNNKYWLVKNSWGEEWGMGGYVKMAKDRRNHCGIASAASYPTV

[7] = target: recombinant cruzain (Cz) (Trypanosoma cruzi, UniProt P25779); assay: Cruzain enzyme inhibition; type: biochemical; settings: for remaining activity at 10 µM: replicates = 2; for Ki: SD lower than 15%, read-out: pKi Cz (converted)
recombinant cruzain (Cz), sequence (P25779 123-337): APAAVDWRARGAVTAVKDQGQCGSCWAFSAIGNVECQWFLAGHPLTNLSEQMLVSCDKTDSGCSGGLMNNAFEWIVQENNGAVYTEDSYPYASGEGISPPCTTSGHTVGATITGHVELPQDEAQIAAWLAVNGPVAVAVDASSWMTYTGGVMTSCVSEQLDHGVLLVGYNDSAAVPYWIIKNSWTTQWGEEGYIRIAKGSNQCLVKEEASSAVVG
Protocol: as §1

[8] = target: cathepsin B (CatB) (Homo sapiens, UniProt P07858); assay: Cathepsin B enzyme inhibition; type: biochemical; settings: for remaining activity (%) at 10 μM, CatB / remaining activity at 10 µM: replicates = 2, n.i. = no inhibition observed at 10 μM
[9] = target: Leishmania mexicana CPB (LmCPB) (Leishmania mexicana, UniProt P36400); assay: LmCPB enzyme inhibition; type: biochemical; settings: for remaining activity at 10 µM: replicates = 2; for Ki: SD lower than 15%, read-out: pKi LmCPB (converted)
Leishmania mexicana CPB (LmCPB), sequence (P36400 126-443): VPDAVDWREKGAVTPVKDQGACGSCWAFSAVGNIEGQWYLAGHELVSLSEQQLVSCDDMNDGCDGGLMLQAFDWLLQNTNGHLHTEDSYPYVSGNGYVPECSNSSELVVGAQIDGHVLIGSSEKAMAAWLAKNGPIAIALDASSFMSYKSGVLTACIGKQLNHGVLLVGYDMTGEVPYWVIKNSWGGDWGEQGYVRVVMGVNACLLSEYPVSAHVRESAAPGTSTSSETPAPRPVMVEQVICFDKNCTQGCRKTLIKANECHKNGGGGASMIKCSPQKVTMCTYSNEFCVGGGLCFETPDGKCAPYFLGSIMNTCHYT
Protocol: as §1

[10] = tested on: T. cruzi infection; parameters: method as in PMID 14580960; settings: mice ref 10, 11; cited from earlier work
[11] = tested on: T. cruzi; parameters: method as in PMID 14580960; settings: dogs ref 10, 11; cited from earlier work
[12] = dog, in vivo; cited from earlier work
[13] = LLCMK2, 72 h, MTT, Table 2, read-out: CC50 cytotoxicity
[14] = S1 Table, maximum concentration used 250 µM, read-out: CC50
[15] = 10 μM, replicates = 2, n.i. = no inhibition observed at 10 μM
[16] = 72 h, amastigote, Tulahuen strain, 72 h, Table 2, read-out: EC50 trypanocidal activity
[17] = T. cruzi amastigote form, S1 Table, read-out: pEC50 (converted)
[18] = S1 Table, maximum concentration used 250 µM, read-out: EC50 T. cruzi
[19] = amastigote forms of T. cruzi (Tuhaluen strain), Figs 12-14, unit inferred, read-out: EC50

Structure (SMILES)	CC50 at 72 h [1, 13]	CC50 at 72 h [1, 14]	remaining activity at 10 µM [4, 15]	EC50 [5, 16]	EC50 [5, 17]	remaining activity at 10 µM [6]	remaining activity at 10 µM [7]	melting point	remaining activity at 10 µM [9]	Ki [3]	Ki [4]	EC50 [5, 18]	Ki [6]	Ki [7]	Ki [9]	SI (selective index) ([5]; Table 2)	remaining activity at 10 µM [8]	further results
C[C@H](OCc1ccccc1)[C@H](C#N)NC(=O)[C@H](Cc1ccccc1)NC(=O)c1cc(C(C)(C)C)nn1C [Compound 57, N-((S)-1-(((1S,2S)-2-(Benzyloxy)-1-cyanopropyl)amino)-1-oxo-3-phenylpropan-2-yl)-3-(tert-butyl)-1-methyl-1H-pyrazole-5-carboxamide]	~125 µM	141 µM	97%	4.3 ± 0.32 µM	3.98 µM	85%	75%	123 to 124 °C	72%									CC50 [2]: > 100 µM; remaining activity (%) at 10 μM, CatS [3, 15]: n.i.^c; remaining activity (%) at 10 μM, CatB [8]: n.i.^c
CC(C)C[C@H](NC(=O)c1cc(C(C)(C)C)nn1C)C(=O)N[C@H](C#N)[C@@H](C)OCc1ccccc1 [Compound 58, N-((S)-1-(((1R,2R)-2-(Benzyloxy)-1-cyanopropyl)amino)-4-methyl-1-oxopentan-2-yl)-3-(tert-butyl)-1-methyl-1H-pyrazole-5-carboxamide]		> 100 µM			> 100 µM			96 to 97 °C		0.0501 µM	0.0158 µM	> 100 µM	0.0631 µM	0.0126 µM	0.02 µM			EC50 [5, 19]: > 100 µM; difference in pKi, Cz ([7]; relative to compound 9, sign not given, direction by cell colour or wording): 0.6; Ki ([8]; SD lower than 15%, read-out: pKi CatB (converted)): 7.94 µM; difference in pKi, LmCPB ([9]; relative to compound 11, sign not given, direction by cell colour or wording): 0.4
CC(C)C[C@H](NC(=O)c1cc(C(C)(C)C)nn1C)C(=O)N[C@@H](C#N)[C@H](C)OCc1ccccc1 [Compound 59, N-((S)-1-(((1S,2S)-2-(Benzyloxy)-1-cyanopropyl)amino)-4-methyl-1-oxopentan-2-yl)-3-(tert-butyl)-1-methyl-1H-pyrazole-5-carboxamide]		> 100 µM			> 100 µM	90%	60%	110 to 111 °C	75%			> 100 µM						remaining activity at 10 µM [3, 15]: 85%; remaining activity (%) at 10 μM, CatK [4, 15]: n.i.^c; EC50 [5, 19]: > 100 µM; remaining activity (%) at 10 μM, CatB [8]: n.i.^c
C[C@@H](O)[C@@H](C#N)NC(=O)[C@H](Cc1ccccc1)NC(=O)c1cc(C(C)(C)C)nn1C [Compound 65, 3-(tert-Butyl)-N-((S)-1-(((1R,2R)-1-cyano-2-hydroxypropyl)amino)-1-oxo-3-phenylpropan-2-yl)-1-methyl-1H-pyrazole-5-carboxamide]	> 100 µM		86%	70.8 ± 8.79 µM	79.4 µM		68%	159 to 160 °C	69%	5.01 µM			5.01 µM			> 1.4	92%	
C[C@H](O)[C@H](C#N)NC(=O)[C@H](Cc1ccccc1)NC(=O)c1cc(C(C)(C)C)nn1C [Compound 66, 3-(tert-Butyl)-N-((S)-1-(((1S,2S)-1-cyano-2-hydroxypropyl)amino)-1-oxo-3-phenylpropan-2-yl)-1-methyl-1H-pyrazole-5-carboxamide]	> 100 µM		81%	30 ± 2.71 µM	31.6 µM			145 to 147 °C		20 µM			2.51 µM	3.98 µM	15.8 µM	> 3.3	89%	
CC(C)C[C@H](NC(=O)c1cc(C(C)(C)C)nn1C)C(=O)N[C@H](C#N)[C@@H](C)O [Compound 67, 3-(tert-Butyl)-N-((S)-1-(((1R,2R)-1-cyano-2-hydroxypropyl)amino)-4-methyl-1-oxopentan-2-yl)-1-methyl-1H-pyrazole-5-carboxamide]	> 100 µM			24.4 ± 2.36 µM	25.1 µM			118 to 119 °C		10 µM	0.0158 µM		0.1 µM	0.0794 µM	0.2 µM	> 4.1	92%	
CC(C)C[C@H](NC(=O)c1cc(C(C)(C)C)nn1C)C(=O)N[C@@H](C#N)[C@H](C)O [Compound 68, 3-(tert-Butyl)-N-((S)-1-(((1S,2S)-1-cyano-2-hydroxypropyl)amino)-4-methyl-1-oxopentan-2-yl)-1-methyl-1H-pyrazole-5-carboxamide]	> 100 µM			16 ± 4 µM	15.8 µM	88%		111 to 113 °C	54%		7.94 µM	16.3 µM		3.98 µM		> 6.3	93%	remaining activity at 10 µM [3, 15]: 83%
CN1CCN(C(=O)N[C@@H](Cc2ccccc2)C(=O)N[C@H](/C=C/S(=O)(=O)c2ccccc2)CCc2ccccc2)CC1 [Compound K777]																		rescue from lethal infection [10]: rescue mice of a lethal experimental T. cruzi infection; effect on parasite growth [11]: reduce parasite growth; side effects [12]: substantial side effects
